Assay results: patent US20030224978A1, “Compounds and methods for modulating apoptosis” (McGill University, priority 1996, published 2003)
Entries after “also recorded” stand apart in the source; their conditions may differ. Positions of bridges follow the written chain, without caps; N, C: chain ends. Residues, ends and D or L forms follow the SMILES beside them.

How the values were obtained:
chick N-cadherin = biological target: T1, chick N-cadherin (Gallus gallus, UniProt P10288); assay: N-cadherin dependent neurite outgrowth of rat cerebellar neurons on N-cadherin expressing 3T3 cells (Example 14); assay type: cell-based; settings: for inhibitory activity on N-cadherin dependent neurite outgrowth, in words: Tables 8 and 9, 250 or 125 μg/mL; for activity on N-cadherin dependent neurite outgrowth at lower concentration, in words: concentrations of 125 µg/mL or below; for inhibition at 250 µg/mL: NIH3T3, 250 μg/mL, 16-18 hours; for reduction in inhibitory activity on flanking HAV with E-cadherin amino acids: Table 8, 250 μg/mL
T1 construct: expressed in transfected cells; host or cells: 3T3 fibroblasts
T1 sequence (P10288 165-912): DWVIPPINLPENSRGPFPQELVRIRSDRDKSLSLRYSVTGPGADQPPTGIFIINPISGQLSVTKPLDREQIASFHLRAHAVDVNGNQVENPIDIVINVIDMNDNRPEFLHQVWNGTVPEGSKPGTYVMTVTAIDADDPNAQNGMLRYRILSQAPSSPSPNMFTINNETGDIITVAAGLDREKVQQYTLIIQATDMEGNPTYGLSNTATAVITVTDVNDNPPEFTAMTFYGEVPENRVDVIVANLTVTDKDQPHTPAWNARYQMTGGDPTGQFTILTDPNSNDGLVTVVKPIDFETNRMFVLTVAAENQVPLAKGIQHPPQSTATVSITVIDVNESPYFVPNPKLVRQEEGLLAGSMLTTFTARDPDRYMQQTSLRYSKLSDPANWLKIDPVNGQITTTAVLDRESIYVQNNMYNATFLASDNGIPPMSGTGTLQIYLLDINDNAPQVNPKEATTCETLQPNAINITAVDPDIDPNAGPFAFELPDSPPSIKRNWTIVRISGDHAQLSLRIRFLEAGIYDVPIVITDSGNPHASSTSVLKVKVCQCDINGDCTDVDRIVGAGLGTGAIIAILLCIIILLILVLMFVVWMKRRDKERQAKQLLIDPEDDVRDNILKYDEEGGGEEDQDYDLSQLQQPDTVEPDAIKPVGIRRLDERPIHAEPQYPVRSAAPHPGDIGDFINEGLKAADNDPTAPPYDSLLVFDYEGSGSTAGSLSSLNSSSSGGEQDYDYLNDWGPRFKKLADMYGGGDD
Protocol: Cell culture and neurite outgrowth assays. Co-cultures of cerebellar neurons on monolayers of control 3T3 cells and monolayers of transfected 3T3 cells that express physiological levels of chick N-cadherin or human L1 were established as previously described (Williams et al., Neuron 13:583-594, 1994). In brief, 80,000 3T3 cells (control and transfected) were plated into individual chambers of an eight-chamber tissue culture slide coated with polylysine and fibronectin and cultured in DMEM/10% FCS. After 24 hours, when confluent monolayers had formed, the medium was removed and 3000 cerebellar neurons isolated from post-natal day 2-3 rats were plated into each well in SATO media (Doherty et al., Nature 343:464-466, 1990) supplemented with 2% FCS. All of the test peptides were added immediately before the neurons as a 2×stock prepared in SATO/2% FCS. The co-cultures were maintained for 16-18 hours, at which time they were fixed and immunostained for GAP-43 which is present only in the neurons and delineates the neuritic processes. The mean length of the longest neurite per cell was measured for 150-200 neurons sampled in replicate cultures as previously described (Williams et al., Neuron 13:583-594, 1994). […] Dose-response curves were evaluated and the EC50 values determined.
Effects of cyclic HAV peptides on N-cadherin function. The ability of N-Ac-CHAVC-NH2 (SEQ ID NO:10; compound 1) to inhibit neurite outgrowth was initially tested. This cyclic peptide has the cadherin CAR sequence (HAV) and no flanking amino acid residues. Neurons were cultured on confluent monolayers of control (untransfected) and N-cadherin expressing 3T3 cells for 16-18 hours. The cells were then fixed and the length of the longest neurite on 150-200 neurons was determined by standard assay, as described above. FIG. 24 gives the mean neurite length in a representative experiment where cerebellar neurons have been cultured over control and N-cadherin expressing cells. In the absence of peptide, the mean length of the longest neurite per cell was approximately double on the N-cadherin expressing cells, as compared to 3T3 cells. This response requires N-cadherin function in both the neuron and transfected fibroblast.

in vitro [1] = assay type: cell-based; settings: human
Protocol: (§1) N-Ac-CHAVC-NH2 (SEQ ID NO:10) and the control peptide N-Ac-CHGVC-NH2 (SEQ ID NO:20) were evaluated for possible cytotoxic effects on human microvascular endothelial (HMVEC; Clonetics), human umbilical vein endothelial (HUVEC; ATCC #CRL-1730), IAFp2 (human fibroblast cell line; Institute Armand-Frapier, Montreal, Quebec), WI-38 (human fibroblast cell line; ATCC #CCL-75), MDA-MB231 (human breast cancer cell line; ATCC #HTB-26), and PC-3 (human prostate cancer cell line; ATCC #CRL-1435) cells utilizing the MTT assay (Plumb et al., Cancer Res. 49:4435-4440, 1989). Neither of the peptides was cytotoxic at concentrations up to and including 100 μM. Similarly, neither of the peptides was capable of inhibiting the proliferation of the above cell lines at concentrations up to 100 μM, as judged by ^3H-thymidine incorporation assays.

in vitro [2] = assay type: cell-based; settings: human; remark: listed apart in the source
Protocol: as §1

in vitro [3] = assay type: cell-based; settings: human; remark: listed apart in the source
Protocol: as §1

in vitro [4] = assay type: cell-based; settings: human; remark: listed apart in the source
Protocol: as §1

[5] = test system: angiogenesis in chick embryonic chorioallantoic membranes; assay: Chick chorioallantoic membrane angiogenesis assay; assay type: in vivo; settings: 3, 17, and 33 μg/mesh
Protocol: The chick chorioallantoic membrane assay was used to assess the effects of cyclic peptides on angiogenesis (Iruela-Arispe et al., Molecular Biology of the Cell 6:327-343, 1995). Cyclic peptides were embedded in a mesh composed of vitrogen at concentrations of 3, 17, and 33 μg/mesh. The meshes were then applied to 12-day-old chick embryonic chorioallantoic membranes. After 24 hours, the effects of the peptides on angiogenesis were assessed by computer assisted morphometric analysis.
For each concentration of cyclic peptide, the percent inhibition of angiogenesis (relative to the level of angiogenesis in the absence of cyclic peptide) is provided. Assays were performed in the presence (+) or absence (−) of […] VEGF. For example, the cyclic peptide N-Ac-CHAVC-NH2 (SEQ ID NO:10) inhibited angiogenesis by 46%, 51%, and 51% at concentrations of 3, 17, and 33 μg/mesh, respectively.

| IC50 (in vitro [1]) [µM] | IC50 (in vitro [2]) [µM] | IC50 (in vitro [3]) [µM] | IC50 (in vitro [4]) [µM] | inhibition at 250 µg/mL (chick N-cadherin) [%] | Molecule | other results |
| --- | --- | --- | --- | --- | --- | --- |
|  |  |  |  |  | N-Ac-CRAHAVDC-NH2 (disulfide 1-8 (inferred)) | inhibitory activity on N-cadherin dependent neurite outgrowth, in words (chick N-cadherin): completely eliminated inhibitory activity |
|  |  |  |  |  | N-Ac-CLRAHAVDC-NH2 (disulfide 1-9 (inferred)) | inhibitory activity on N-cadherin dependent neurite outgrowth, in words (chick N-cadherin): potent inhibitors of neurite outgrowth; also recorded: partial recovery of activity; activity on N-cadherin dependent neurite outgrowth at lower concentration, in words (chick N-cadherin): lost activity |
| > 100 | > 100 | > 100 | > 100 | 5.7 ± 7.8 | CC(C)[C@@H]1NC(=O)CNC(=O)[C@H](Cc2c[nH]cn2)NC(=O)[C@H](C)NC(=O)[C@@H](N)CSSC[C@@H](C(N)=O)NC(=O)[C@H](CC(=O)O)NC1=O [H-CAHGVDC-NH2, reference compound] (H-CAHGVDC-NH2; disulfide 1-7) |  |
| > 100 | > 100 | > 100 | > 100 | -3.7 ± 2.9 | CC[C@H](C)[C@@H]1NC(=O)[C@H](CC(=O)O)NC(=O)[C@H](C(C)C)NC(=O)[C@H](C)NC(=O)[C@H](Cc2c[nH]cn2)NC(=O)[C@H](C)NC(=O)[C@@H](N)CSSC[C@@H](C(N)=O)NC1=O (H-CAHAVDIC-NH2; disulfide 1-8) | inhibitory activity on N-cadherin dependent neurite outgrowth, in words (chick N-cadherin): total loss of activity; inhibitory activity on N-cadherin dependent neurite outgrowth, in words (chick N-cadherin; listed as compound 15): lost activity |
| > 100 | > 100 | > 100 | > 100 | 11 ± 8.6 | CC(=O)N[C@H]1CSSC[C@@H](C(N)=O)NC(=O)[C@H](C(C)C)NC(=O)[C@H](C)NC(=O)[C@H](Cc2c[nH]cn2)NC(=O)[C@H](CO)NC1=O [N-Ac-CSHAVC-NH2, N-Ac-Cys-Ser-His-Ala-Val-Cys-NH2] (Ac-CSHAVC-NH2; disulfide 1-6) | reduction in inhibitory activity on flanking HAV with E-cadherin amino acids (chick N-cadherin): complete |
| > 100 | > 100 | > 100 | > 100 |  | CC(=O)N[C@H]1CSSC[C@@H](C(N)=O)NC(=O)[C@H](Cc2c[nH]cn2)NC(=O)CNC(=O)[C@H](C(C)C)NC1=O [N-Ac-CVGHC-NH2, reference compound] (Ac-CVGHC-NH2; disulfide 1-5 (inferred)) |  |
|  |  |  |  |  | N-Ac-CSHAVSC-NH2 (disulfide 1-7 (inferred)) | reduction in inhibitory activity on flanking HAV with E-cadherin amino acids (chick N-cadherin): complete |
| > 100 | > 100 | > 100 | > 100 | 7.2 ± 8.1 | CC[C@H](C)[C@@H]1NC(=O)[C@H](CC(=O)O)NC(=O)[C@H](C(C)C)NC(=O)CNC(=O)[C@H](Cc2c[nH]cn2)NC(=O)[C@H](C)NC(=O)[C@@H](N)CSSC[C@@H](C(N)=O)NC1=O [reference compound] (H-CAHGVDIC-NH2; disulfide 1-8) |  |
|  |  |  |  |  | N-Ac-CAHAVC-NH2 (disulfide 1-6 (inferred)) | activity on N-cadherin dependent neurite outgrowth at lower concentration, in words (chick N-cadherin): lost activity |
| > 100 | > 100 | > 100 | > 100 |  | CC(=O)N[C@H]1CSSC[C@@H](C(N)=O)NC(=O)[C@H](Cc2c[nH]cn2)NC(=O)[C@H](C)NC(=O)[C@H](C(C)C)NC1=O [N-Ac-CVAHC-NH2] (Ac-CVAHC-NH2; disulfide 1-5 (inferred)) | inhibition of angiogenesis, in words [5]: relatively inactive |
| > 100 | > 100 | > 100 | > 100 | 4.8 ± 6.5 | CC[C@H](C)[C@@H]1NC(=O)[C@H](CC(=O)O)NC(=O)[C@H](C(C)C)NC(=O)CNC(=O)[C@H](Cc2c[nH]cn2)NC(=O)[C@H](C)NC(=O)[C@@H](NC(C)=O)CSSC[C@@H](C(N)=O)NC1=O [reference compound] (Ac-CAHGVDIC-NH2; disulfide 1-8) |  |
|  |  |  |  |  | N-Ac-CHAVSSC-NH2 (disulfide 1-7 (inferred)) | reduction in inhibitory activity on flanking HAV with E-cadherin amino acids (chick N-cadherin): substantial |
| > 100 | > 100 | > 100 | > 100 | 1.3 ± 13 | CC(C)[C@@H]1NC(=O)[C@H](C)NC(=O)[C@H](Cc2c[nH]cn2)NC(=O)[C@H](C)NC(=O)[C@@H](N)CSSC[C@@H](C(N)=O)NC(=O)[C@H](CC(=O)O)NC1=O [H-CAHAVDC-NH2, H-Cys-Ala-His-Ala-Val-Asp-Cys-NH2] (H-CAHAVDC-NH2; disulfide 1-7) |  |
| > 100 | > 100 | > 100 | > 100 | 12.5 ± 7.5 | CC(=O)N[C@H]1CSSC[C@@H](C(N)=O)NC(=O)[C@H](C(C)C)NC(=O)CNC(=O)[C@H](Cc2c[nH]cn2)NC(=O)[C@H](CO)NC1=O [N-Ac-CSHGVC-NH2, reference compound] (Ac-CSHGVC-NH2; disulfide 1-6) |  |
| > 100 | > 100 | > 100 | > 100 | -6.7 ± 5.8 | CC(=O)N[C@H]1CSSC[C@@H](C(N)=O)NC(=O)[C@H](CO)NC(=O)[C@H](C(C)C)NC(=O)CNC(=O)[C@H](Cc2c[nH]cn2)NC1=O [N-Ac-CHGVSC-NH2, reference compound] (Ac-CHGVSC-NH2; disulfide 1-6) |  |
|  |  |  |  |  | N-Ac-CLRAHAVC-NH2 (disulfide 1-8 (inferred)) | inhibitory activity on N-cadherin dependent neurite outgrowth, in words (chick N-cadherin): detrimental affect |
|  |  |  |  |  | N-Ac-CHAVDINGC-NH2 (disulfide 1-9 (inferred)) | inhibitory activity on N-cadherin dependent neurite outgrowth, in words (chick N-cadherin): completely abrogates activity |
|  |  |  |  |  | CC(=O)N[C@H]1CSSC[C@@H](C(N)=O)NC(=O)[C@H](CC(=O)O)NC(=O)[C@H](C(C)C)NC(=O)[C@H](C)NC(=O)[C@H](Cc2cnc[nH]2)NC1=O [N-Ac-CHAVDC-NH2] (Ac-CHAVDC-NH2; disulfide 1-6) | EC50 (chick N-cadherin; from dose-response curve): 93 µM |
